Marks after values point to notes of the source that are not given here.
How the values were obtained:
[1] = tested on: Chinese hamster V79 cells; assay: In vitro micronucleus assay with CREST staining; format: cell-based
[2] = Skin sensitisation study
[3] = tested on: Wistar rats; assay: Two‐generation reproduction toxicity study; conditions: rat, in vivo
[4] = tested on: CByB6F1 Hybrid mice; assay: 28‐day oral gavage study with toxicokinetic evaluation of NOPA; format: in vivo
[5] = tested on: Holstein Friesian dairy cows; assay: Three long‐term studies on enteric methane output; format: in vivo
[6] = ADME in four lactating cows; format: in vivo
[7] = males, 700 mg/kg bw per day (control 0/10)
[8] = study 1 WUR, 54 mg 3‐NOP/kg TMR DM intake
[9] = study 2 UK, 57 mg 3‐NOP/kg TMR DM intake
[10] = study 3 PSU, 61 mg 3‐NOP/kg TMR DM intake

Compound: O=[N+]([O-])OCCCO [3‐NOP, propan‐1,3‐diol‐mononitrate]
- Micronuclei containing chromosome fragments (CREST staining) ([1]; 540 μg/mL): 79%
- Micronucleus frequency ([1]; with metabolic activation, 3 + 21 h, at 540, 570 and 600 μg/mL): statistically significant increase in micronuclei
- Skin sensitisation potential [2]: did not show any skin sensitisation potential
- NOAEL for parental toxicity [3]: 100 mg/kg bw per day
- NOAEL for reproduction and developmental toxicity [3]: at least 100 mg/kg bw per day
- Reduction in mean overall food consumption ([4]; 700 mg/kg bw per day, vs control): 6%
- NOAEL ([4]; blood biochemical changes at 300 mg/kg bw per day): 100 mg 3‐NOP/kg bw per day
- Decrease of absolute thymus weight ([4]; males, 700 mg/kg bw per day): 22%
- Decrease of relative thymus weight ([4]; males, 700 mg/kg bw per day): 23%
- Incidence of mild inflammation of the eye striated muscle [4, 7]: 4/10
- Incidence of minimal to mild adrenal cortical vacuolation [4, 7]: 4/10
- Final BW [5, 8]: 668 kg
- Milk fat [5, 8]: 43.4 g/kg
- Milk protein [5, 8]: 36.3 ^* g/kg
- TMR DM intake [5, 8]: 18.4 kg/day
- kg EC milk/day [5, 8]: 25.7 kg EC milk/day
- kg EC milk/kg DMI [5, 8]: 1.36 ^* kg EC milk/kg DMI
- kg milk/day [5, 8]: 24.5 kg milk/day
- g CH4/kg EC milk ([5]; study 1 WUR, 54 mg 3‐NOP/kg TMR DM intake (control 17.1)): 12.9 ^* (18.7) g CH4/kg EC milk
- g CH4/kg DM intake ([5]; study 1 WUR, 54 mg 3‐NOP/kg TMR DM intake (control 22.4)): 17.7 ^* (25.5) g CH4/kg DM intake
- g CH4/day ([5]; study 1 WUR, 54 mg 3‐NOP/kg TMR DM intake, average over 15 weeks (control 423)): 332 ^* (480) g CH4/day
- Final BW [5, 9]: 721 kg
- Milk fat [5, 9]: 39.9 ^* g/kg
- Milk protein [5, 9]: 33.4 g/kg
- TMR DM intake [5, 9]: 22.9 kg/day
- kg EC milk/day [5, 9]: 35.0 ^* kg EC milk/day
- kg EC milk/kg DMI [5, 9]: 1.53 kg EC milk/kg DMI
- kg milk/day [5, 9]: 36.0 kg milk/day
- g H2/day ([5]; study 2 UK, 57 mg 3‐NOP/kg TMR DM intake (control 2.6)): 10.6 ^* (2.4) g H2/day
- g CH4/kg EC milk ([5]; study 2 UK, 57 mg 3‐NOP/kg TMR DM intake (control 12.3)): 8.4 ^* (10.1) g CH4/kg EC milk
- g CH4/kg DM intake ([5]; study 2 UK, 57 mg 3‐NOP/kg TMR DM intake (control 20.3)): 13.5 ^* (16.7) g CH4/kg DM intake
- g CH4/day ([5]; study 2 UK, 57 mg 3‐NOP/kg TMR DM intake (control 449)): 292 ^* (400) g CH4/day
- Final BW [5, 10]: 648 kg
- Milk fat [5, 10]: 40.2 ^* g/kg
- Milk protein [5, 10]: 31.5 g/kg
- TMR DM intake [5, 10]: 25.7 kg/day
- kg EC milk/day [5, 10]: 37.5 kg EC milk/day
- kg EC milk/kg DMI [5, 10]: 1.47 kg EC milk/kg DMI
- kg milk/day [5, 10]: 38.2 kg milk/day
- g H2/day ([5]; study 3 PSU, 61 mg 3‐NOP/kg TMR DM intake (control 0.5)): 2.6 ^* (0.4) g H2/day
- g CH4/kg EC milk ([5]; study 3 PSU, 61 mg 3‐NOP/kg TMR DM intake (control 11.2)): 8.2 ^* (9.7) g CH4/kg EC milk
- g CH4/kg DM intake ([5]; study 3 PSU, 61 mg 3‐NOP/kg TMR DM intake (control 16.7)): 12.1 ^* (14.9) g CH4/kg DM intake
- g CH4/day ([5]; study 3 PSU, 61 mg 3‐NOP/kg TMR DM intake (control 410)): 308 ^* (403) g CH4/day
- Radioactivity excreted via faeces, mean ([6]; 1.8 g/animal per day, 7 days): 2.7 % of radioactivity totally app
- Radioactivity excreted via milk, mean ([6]; 1.8 g/animal per day, 7 days): 16.82 % of radioactivity totally app
- Radioactivity excreted via urine, mean ([6]; 1.8 g/animal per day, 7 days): 4 % of radioactivity totally app
- Radioactivity remaining in the total tissues ([6]; 1.8 g/animal per day, 7 days): 6.2 % of radioactivity totally app
- Total radioactivity excreted ([6]; 1.8 g/animal per day, 7 days): 23.5%
- Total recovery at sacrifice ([6]; 1.8 g/animal per day, 7 days): approximately 30%
- 3‐NOP and NOPA in total excreta, worst‐case scenario ([6]; dairy cows): ≤ 0.2%
- Residue in milk, not found above the LOQ ([6]; in vivo): < 8 μg 3‐NOP‐equivalents/kg
- Residue in tissues, not found above the LOQ ([6]; in vivo): < 21 μg 3‐NOP‐equivalents/kg
- Amount in urine ([6]; urine of one animal (day 2–day 6)): 0.1 % of the dose
